The values that follow come from patent US20070101445A1, “Transgenic mice carrying the HP-2 gene and uses as models for vascular diseases” (priority 2005, published 2007).

One experiment relates to Hp 0 mice. Kind of experiment: Chronic supplementation with vitamin E, renal hypertrophy in Hp 0 mice. The experiment is classed as in vivo, mouse. As to the method:
(§1) Chronic supplementation with vitamin E. Wild-type or Hp 0 mice (n=5 in each group) were treated for 7 months with placebo (water) or vitamin E (Merck, racemic alpha-tocopherol acetate) at a concentration of 40 mg/kg/day administered daily in the drinking water from 4 weeks of age.
(§2) Preparation of renal tissue for morphometric and histochemical analysis. Mice were sacrificed with intraperitoneal injection of pentabarbitone sodium. Kidneys were excised and weighed and the half-middle portion was fixed in 4% buffered BP formaldehyde solution (Gadot, Netanya, Israel) and embedded in paraffin. For both the morphometric and histochemical analysis, there were four mice in each of the six groups (wild type, Hp 0, and Hp 2, with and without diabetes).
(§3) Statistical analysis. Values are reported as the mean±SEM. Comparisons between groups were performed using two-way ANOVA under a general linear model, with Hp phenotype as one factor and time, presence of diabetes, or treatment with vitamin E as the second factor. Pairwise comparisons were carried out using the Fisher's protected least significant difference (PLSD) test. A p-value of less than 0.05 was taken as being statistically significant. Statistical analyses were performed using the SPSS statistical software version 11.5 (Chicago, Ill.). […]

The next experiment deals with Wild-type mice. Put plainly: Chronic supplementation with vitamin E, renal mass in wild-type mice. The experiment is classed as in vivo, mouse. Particulars: WT mice, 40 mg/kg/day vitamin E orally from 4 weeks, sacrificed at 8 months, mean±SEM, n=5. As to the method:
as §1, §2, §3

Take `CC(=O)Oc1c(C)c(C)c2c(c1C)CC[C@@](C)(CCC[C@H](C)CCC[C@H](C)CCCC(C)C)O2` (racemic) [Vitamin E, racemic alpha-tocopherol acetate]: the “RM/BM (renal mass normalized for body weight)” value in the experiment on Hp 0 mice (40 mg/kg/day vitamin E orally from 4 weeks, sacrificed at 8 months, mean±SEM, n=5) worked out at 11.01 ± 0.24 mg/g; with Wild-type mice it was 11.42 ± 0.98 mg/g. Moreover, in the experiment with Hp 0 mice (vitamin E for 7 months), the “renal mass in Hp 0 animals receiving vitamin E compared to Hp 0 mice who did not receive vitamin E” value was “reduced”.
